In US7951826B2, “Pyrrolidine derivatives as histamine H3 receptor antagonists” (Eli Lilly and Company, priority 2005, dated 2011) one finds Ki data, which are given here for two compounds.

For the test, the target named is T1, H3R membranes (H3R8-expressing HEK293 cell line) (Homo sapiens, UniProt Q9Y5N1).
T1 construct: expressed in transfected cells; pcDNA3.1(+) vector, G418 selection)
As to the kind of experiment: [35S] GTP gamma [S] binding assay. The format is biochemical. The settings on record: inhibition of [35S]GTP gamma S binding to H3R membranes in presence of agonist R(-)alpha methylhistamine. As for the experimental part: Membranes isolated as described in (Preparation of Histamine Receptor Subtype Membranes) are used in a [35S]GTPχS functional assay. Binding of [35S]GTPχS to membranes indicates agonist activity. Compounds of the invention of Formula I or Formula II are tested for their ability to inhibit binding in the presence of agonists. Alternately, the same transfected cell lines are used for a cAMP assay wherein H3R agonists inhibit forskolin-activated synthesis of cAMP. Compounds of Formula I or Formula II are tested for their ability to permit forskolin-stimulated cAMP synthesis in the presence of agonist.
cDNA for the human histamine 3 receptor is cloned and expressed as described in (A. Preparation H1R membranes), above. Transfected cells are selected using G418 ([…]), grown, and tested for histamine binding by the SPA described above. For total binding, cells are assayed in a SPA reaction described above containing 50 mM Tris-HCL (assay buffer), pH 7.6, 1 mg wheat germ agglutinin SPA beads (Amersham Pharmacia Biotech, #RPNQ0001), and 1 nM (^3H)-n-alpha-methylhistamine (NEN, NET1027) (total volume per well=200 μl). Thioperimide is added to determine non-specific binding. […]
Antagonist activity of selected compounds is tested for inhibition of [35S] […] Plates are counted in Wallac Trilux 1450 Microbeta scintillation counter for 1 minute. […]
For orientation: GTPγS is a poorly hydrolysed GTP analogue; its binding reports G protein activation.

The structures appear in SMILES notation.

T1 sequence (Q9Y5N1 whole entry): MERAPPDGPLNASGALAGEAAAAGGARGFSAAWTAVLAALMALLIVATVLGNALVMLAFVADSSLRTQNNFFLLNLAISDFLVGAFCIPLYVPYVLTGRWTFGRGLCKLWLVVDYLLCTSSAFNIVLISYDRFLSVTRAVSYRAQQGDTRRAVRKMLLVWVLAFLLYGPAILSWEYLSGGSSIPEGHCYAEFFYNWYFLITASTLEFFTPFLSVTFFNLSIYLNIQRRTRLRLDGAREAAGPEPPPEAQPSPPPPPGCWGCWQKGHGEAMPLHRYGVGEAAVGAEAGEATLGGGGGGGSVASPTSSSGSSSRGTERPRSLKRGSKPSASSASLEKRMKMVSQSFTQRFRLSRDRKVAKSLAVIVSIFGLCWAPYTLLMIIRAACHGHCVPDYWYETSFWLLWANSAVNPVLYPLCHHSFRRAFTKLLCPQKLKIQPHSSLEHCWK

What is called Ki is a measure of affinity in units of concentration, obtained from inhibition or displacement. Consider `CCCCOc1ccc(C(=O)N2CCC[C@@H]2CN2CCCC2)cc1`, for which the Ki came to 145 nM.

Consider `COc1ccc(C(=O)N2CCC[C@H]2CN2CCCC2)cc1`, for which the Ki worked out at 73.6 nM.
